# Laboratory results reported in BindingDB's records for doi:10.1016/j.bmc.2021.116161 (University of Nantes, 2021).
# Experiments:
# [1] = Inhibition of […] in mouse 32Dbeta cells assessed as decrease in cell growth in presence of IL2 incubated for 30 mins followed by IL2 addition and measured after 2.5 days by alamar blue assay
# [2] = Inhibition of IL-15 in mouse 32Dbeta cells assessed as decrease in cell growth in presence of RLI incubated for 30 mins followed by RLI addition and measured after 2.5 days by alamar blue assay
Structure (SMILES),IC50 [1],IC50 [2]
Cn1nc(Cc2nnc(SCCCCCCCC(=O)Nc3ccc(Cl)cc3Cl)n2CCCO)c2ccccc2c1=O,> 30 µM,> 30 µM
Cn1nc(Cc2nnc(SCCCCCCCC(=O)Nc3ccc(Cl)cc3Cl)n2CCCO[Si](C)(C)C(C)(C)C)c2ccccc2c1=O,> 30 µM,> 30 µM
Cn1c(Cc2nn(CCCO[Si](C)(C)C(C)(C)C)c(=O)c3ccccc23)nnc1SCCCCCCCC(=O)Nc1ccc(Cl)cc1Cl,> 30 µM,> 30 µM
Cn1c(Cc2nn(C)c(=O)c3ccccc23)nnc1SCCCCCCCC(=O)Nc1ccc(Cl)cc1Cl,3.9 µM,2.2 µM
Cn1nc(Cc2nnc(SCCCCCCCC(=O)Nc3ccc(Cl)cc3Cl)n2CCC(=O)O)c2ccccc2c1=O,> 30 µM,> 30 µM
CCOC(CCn1c(Cc2nn(C)c(=O)c3ccccc23)nnc1SCCCCCCCC(=O)Nc1ccc(Cl)cc1Cl)OCC,16.4 µM,12.1 µM
Cn1c(Cc2nn(C)c(=O)c3ccccc23)nnc1SCCCCCCCC(=O)Nc1ccc(C(=O)c2ccccc2)cc1,20.6 µM,6.7 µM
Cn1nc(Cc2nnc(SCCCCCCCC(=O)Nc3ccc(Cl)cc3Cl)n2CCC=O)c2ccccc2c1=O,5.5 µM,2.5 µM
CN(C)CCCn1nc(Cc2nnc(SCCCCCCCC(=O)Nc3ccc(Cl)cc3Cl)n2C)c2ccccc2c1=O,3.2 µM,2.3 µM
Cn1nc(Cc2nnc(SCCCCCCCC(=O)Nc3ccc(Cl)cc3Cl)[nH]2)c2ccccc2c1=O,3.5 µM,1.1 µM
CCOC(CCn1c(Cc2nn(C)c(=O)c3ccccc23)nnc1SCC(=O)Nc1ccc(Cl)cc1Cl)OCC,> 30 µM,> 30 µM
Cn1c(Cc2n[nH]c(=O)c3ccccc23)nnc1SCCCCCCCC(=O)Nc1ccc(Cl)cc1Cl,> 30 µM,> 30 µM
CN(C)CCCn1c(Cc2nn(C)c(=O)c3ccccc23)nnc1SCCCCCCCC(=O)Nc1ccc(Cl)cc1Cl,5.5 µM,3.7 µM

# Results, then the molecule that gave them:
IC50 [1],IC50 [2],Structure (SMILES)
30 µM,30 µM,Cn1c(Cc2nn(CCC=O)c(=O)c3ccccc23)nnc1SCC(=O)Nc1ccc(Cl)cc1Cl
16.7 µM,18.8 µM,CN(C)CCCn1nc(Cc2nnc(SCC(=O)Nc3ccc(Cl)cc3Cl)n2C)c2ccccc2c1=O
> 30 µM,> 30 µM,Cn1c(Cc2nn(CCC(=O)O)c(=O)c3ccccc23)nnc1SCC(=O)Nc1ccc(Cl)cc1Cl
11.7 µM,8.9 µM,Cn1c(Cc2nn(CCC=O)c(=O)c3ccccc23)nnc1SCCCCCCCC(=O)Nc1ccc(Cl)cc1Cl
> 30 µM,> 30 µM,Cn1c(Cc2nn(CCCO)c(=O)c3ccccc23)nnc1SCC(=O)Nc1ccc(Cl)cc1Cl
21.1 µM,22.5 µM,Cn1c(Cc2nn(C)c(=O)c3ccccc23)nnc1SCC(=O)Nc1ccc(Cl)cc1Cl
6.4 µM,6 µM,Cn1nc(Cc2nnc(SCC(=O)Nc3ccc(Cl)cc3Cl)n2CCC=O)c2ccccc2c1=O
> 30 µM,> 30 µM,Cn1c(Cc2nn(CCC(=O)O)c(=O)c3ccccc23)nnc1SCCCCCCCC(=O)Nc1ccc(Cl)cc1Cl
> 30 µM,> 30 µM,Cn1nc(Cc2nnc(SCC(=O)Nc3ccc(Cl)cc3Cl)n2CCC(=O)O)c2ccccc2c1=O
> 30 µM,> 30 µM,Cn1c(Cc2nn(CCCO)c(=O)c3ccccc23)nnc1SCCCCCCCC(=O)Nc1ccc(Cl)cc1Cl
> 30 µM,> 30 µM,Cn1nc(Cc2nnc(SCC(=O)Nc3ccc(Cl)cc3Cl)n2CCCO)c2ccccc2c1=O
> 30 µM,> 30 µM,Cn1c(Cc2nn(CCC3OCCO3)c(=O)c3ccccc23)nnc1SCC(=O)Nc1ccc(Cl)cc1Cl
